Test results from patent US11312790B2, “Production method for pentosan polysulfate” (OJI HOLDINGS CORPORATION, priority 2016, dated 2022).

Assays:
[1] = biological target: T1, factor IIa (Homo sapiens, UniProt P00734); assay: Measurement of anti-IIa activity using Biophen heparin anti-IIa; format: biochemical; conditions: Biophen heparin anti-IIa kit
T1 construct: purchased Hyphen BioMed Biophen heparin anti-IIa
Source text: In general, anticoagulant activity is based on the activity of inhibiting blood coagulation factors. That is, when anticoagulant activity is high, a blood coagulation reaction is inhibited. Blood coagulation factors refer to the action system of a series of molecules in a living body for coagulating blood when bleeding etc. Successive activation of a large number of blood coagulation factors agglutinates fibrin, and stops bleeding in the bleeding area. Representative examples of blood coagulation factors include factor Xa and factor IIa. Blood coagulation can be inhibited by inhibiting the activity of these factors. The factor IIa inhibitory activity (anti-IIa activity) can be measured using Biophen heparin anti-IIa (manufactured by Hyphen BioMed). Measurement of Anti-IIa Activity The anti-IIa activity of pentosan polysulfate sodium was measured using Biophen heparin anti-IIa (manufactured by Hyphen BioMed).

[2] = test system: factor Xa; assay: Measurement of anti-Xa activity using Test Team Heparin S; format: biochemical; conditions: Test Team Heparin S kit
Source text: In general, anticoagulant activity is based on the activity of inhibiting blood coagulation factors. That is, when anticoagulant activity is high, a blood coagulation reaction is inhibited. Blood coagulation factors refer to the action system of a series of molecules in a living body for coagulating blood when bleeding etc. Successive activation of a large number of blood coagulation factors agglutinates fibrin, and stops bleeding in the bleeding area. Representative examples of blood coagulation factors include factor Xa and factor IIa. Blood coagulation can be inhibited by inhibiting the activity of these factors. Here, the factor Xa inhibitory activity (anti-Xa activity) can be measured using Test Team (registered trademark) Heparin S (manufactured by Sekisui Medical Co., Ltd.). Measurement of Anti-Xa Activity The anti-Xa activity of pentosan polysulfate sodium was measured using Test Team (registered trademark) Heparin S (manufactured by Sekisui Medical Co., Ltd.).

Row | Substance | Anti-IIa activity [1] [IU/mg] | Anti-Xa activity [2] [IU/mg]
1 | pentosan polysulfate sodium [Example 1] | 0.1405 | 0.2047
2 | pentosan polysulfate sodium [Example 3] | 0.0676 | 0.2439
3 | pentosan polysulfate sodium [Comparative Example 1, reference compound] | 0.0221 | 0.0840
4 | pentosan polysulfate sodium [Example 2] | 0.1845 | 0.2588

Continued, in another order:

Row | Anti-IIa activity [1] [IU/mg] | Substance | Anti-Xa activity [2] [IU/mg]
5 | 0.0976 | pentosan polysulfate sodium [Example 5] | 0.2297
6 | 0.0934 | pentosan polysulfate sodium [Example 4] | 0.2419
